The text below walks through data of patent publication US12454687B2, “Functional genomics using CRISPR-Cas systems, compositions, methods, knock out libraries and applications thereof” (The Broad Institute, Inc., priority 2012, dated 2025).

The subject of experiment [1] is human EMX1 locus. The experiment can be described thus: Surveyor assay for genome modification, HEK 293 FT cells. The experiment is classed as cell-based. The following applies: co-expression with EMX1-targeting chimeric crRNA, n=3.
Experimental: Cells were transfected using Lipofectamine 2000 (Life Technologies) following the manufacturer's recommended protocol. For each well of a 24-well plate a total of 800 ng of plasmids were used.
Genomic DNA was extracted using the QuickExtract DNA extraction kit (Epicentre) following the manufacturer's protocol. […] Extracted genomic DNA was immediately processed or stored at −20° C.
The genomic region surrounding a CRISPR target site for each gene was PCR amplified, and products were purified using QiaQuick Spin Column (Qiagen) following manufacturer's protocol. A total of 400 ng of the purified PCR products were mixed with 2 μl 10× Taq polymerase PCR buffer (Enzymatics) and ultrapure water to a final volume of 20 μl, and subjected to a re-annealing process to enable heteroduplex formation: 95° C. for 10 min, 95° C. to 85° C. ramping at −2° C./s, 85° C. to 25° C. at −0.25° C./s, and 25° C. hold for 1 minute. After re-annealing, products were treated with Surveyor nuclease and Surveyor enhancer S (Transgenomics) following the manufacturer's recommended protocol, and analyzed on 4-20% Novex TBE poly-acrylamide gels (Life Technologies). Gels were stained with SYBR Gold DNA stain (Life Technologies) for 30 minutes and imaged with a Gel Doc gel imaging system (Bio-rad). Quantification was based on relative band intensities, as a measure of the fraction of cleaved DNA.
Experiment [2] concerns human EMX1 locus. The experiment can be described thus: sequencing of amplicons containing the target locus. The experiment is classed as cell-based. The following applies: sequencing of 327 amplicons.
Experiment [3] relates to human EMX1 locus. The experiment can be described thus: restriction fragment length polymorphism assay for homologous recombination. The experiment is classed as cell-based. The following applies: HEK 293 FT, HindIII digest.
Text: The target genomic region was PCR amplified using primers outside the homology arms of the homologous recombination (HR) template. PCR products were separated on a 1% agarose gel and extracted with MinElute GelExtraction Kit (Qiagen). Purified products were digested with HindIII (Fermentas) and analyzed on a 6% Novex TBE poly-acrylamide gel (Life Technologies).
In experiment [4] the test system is EMX1 locus. The experiment can be described thus: HDR with ssODNs and targeting vector in HUES9 cells. The experiment is classed as cell-based, human. The text has this:
(a) Either a targeting plasmid or an ssODN (sense or antisense) with homology arms can be used to edit the sequence at a target genomic locus cleaved by Cas9 (red triangle). To assay the efficiency of HDR, we introduced a HindIII site into the target locus, which was PCR-amplified with primers that anneal outside of the region of homology. […] (b) ssODNs, oriented in either the sense or the antisense (s or a) direction relative to the locus of interest, can be used in combination with Cas9 to achieve efficient HDR-mediated editing at the target locus. A minimal homology region of 40 bp, and preferably 90 bp, is recommended on either side of the modification. […] Each ssODN contains homology arms of 90 bp flanking a 12-bp insertion of two restriction sites.
114| In the HDR example, a HindIII restriction site is inserted into the EMX1 gene. These are detected by a restriction digest of the PCR amplicon:
iv. The cleavage products are imaged and quantified as described above in the SURVEYOR assay section. HDR efficiency is estimated by the formula: (b+c)/(a+b+c), where a is the integrated intensity for the undigested HDR PCR product, and b and c are the integrated intensities for the HindIII-cut fragments.
CRISPR-Cas may be easily multiplexed to facilitate simultaneous modification of several genes and mediate chromosomal microdeletions at high efficiencies. […]

The subject of experiment [5] is human EMX1 locus. The experiment can be described thus: double nicking SURVEYOR assay, Cas9 nickase with pairs of guide RNAs, HEK293FT cells. The experiment is classed as cell-based. The following applies: sgRNA pairs generating 5′ and 3′ overhangs, offset range from −278 to +58 bp. The protocol:
Applicants transfected cells using Lipofectamine 2000, and transfected cells were harvested 48 or 72 hours after transfections. Double nicking-induced NHEJ were detected using the SURVEYOR nuclease assay as described previously herein (FIGS. 51, 52 and 53).

Experiment [6] relates to Exon 51 of the dystrophin gene. The following applies: across 48 weeks, cited from earlier work.

In the case of “SpCas9n: SpCas9 with aspartate-to-alanine substitution (D10A) in the RuvC I catalytic domain, a nickase”, the “indels at the EMX1 protospacer target” value in experiment [1] was “does not generate indels”. In addition, in experiment [2], the “indels detected by sequencing” value was “did not detect any indels”. In addition, the “integration of the HR template into the EMX1 locus” value in experiment [3] is reported as “catalyzed integration of the HR template”. Further, in experiment [4], the HDR detection entry was “not been able to detect HDR”.

In the case of H840A: SpCas9 with mutation H840A, in experiment [5], the “indel formation with sgRNA pairs” value is reported as “unable to observe indel formation”.

As for eteplirsen, in experiment [6], the functional benefit entry is reported as “significant functional benefit”. Moreover, the dystrophin positive fibers in experiment [6] (average, compared to baseline) is listed as 47%.
